Experimental findings from PMC13129453, “Targeting the US21 viroporin of human cytomegalovirus by calcium channel blockers as a new antiviral strategy” (Current Research in Microbial Sciences, 2026) are described below.

“And” between values parts separate entries of the source, which are not always exact repeats. Equal entries are not always repeated. Where two headings read alike, the source gives them in different places.

One data set has as its target T1, pUS21 (Human cytomegalovirus, UniProt P09723).
T1 construct: expressed in transfected cells; host or cells: T-REx-U2OS-US21-HA (human osteosarcoma U2OS, stably transfected, tetracycline-inducible)
Format: cell-based. As to the method:
Calcium measurement was determined applying the Ca^2+ add back protocol as previously described ([Luganini et al., 2023]). Briefly, non-induced (NI) or induced (I) T-REx-U2OS-US21-HA cell lines for 48 h with tetracycline, plated at a density of 5000 cells/cm^2 on glass coverslips, were loaded (45 min at 37 °C) with 2 μM Fura-2 AM (Invitrogen, Waltham, MA, USA) and excited at two alternating wavelengths: 340 and 380 nm. Fluorescence emission was captured using a Nikon Eclipse TE-2000S inverted microscope equipped with the MetaFluor Imaging System (Molecular Devices, San Jose, CA, USA). Ratiometric cytosolic Ca^2+ ([Ca^2+]c) quantification was expressed as the ratio (R) of fluorescence emitted at 510 nm for the two excitation wavelengths. Images were acquired every 3 s. Ca^2+ imaging analysis was conducted by peak amplitude quantification using Clampfit 11.1 (Axon pClamp, Molecular Devices). Responses with a ΔR340/380 > 0.05 were taken in account. To assess the ER Ca^2+ content in T-REx-U2OS-US21-HA NI or I cells, depletion of the ER Ca^2+ pool was triggered using IP3mix in the absence of extracellular Ca^2+ (0 Ca^2+). IP3mix consisted of thapsigargin (2 μM), histamine (100 μM), and ATP (100 μM). The experiments were performed in acute treatment in presence of CCBs or DMSO, as control at 0.01%.

For data set [1], the system named is HCMV TRwt. Nature of the data set: Focus-forming reduction assay (FFRA), HCMV TRwt. It counts as cell-based, Human cytomegalovirus.
For a further data set, the system named is HCMV TRUS21stop. Nature of the data set: microbe, parasite or virus in culture. Format: cell-based, Human cytomegalovirus.
Data set [2] can be described thus: Cell cytotoxicity assay (MTT), hT-HFFs. It counts as cell-based. The settings on record: human; for CC50 at 5 days: hT-HFFs, hT-HFF, MTT, five days of treatment. Here is the method: (§1) The effect of test compounds on cell viability was determined in hT-HFFs, HMVECs and T-REx-U2OS-US21-HA cells seeded in p96-well (12,000 cells/well). After 24 h, cells were treated with compounds at concentrations starting from 300 μM and then serially diluted in culture medium, or with DMSO alone starting from 0.6% v/v as the vehicle control. For cell viability of drug combination studies, the control with DMSO was from 0.07%.

Data set [3] deals with HCMV VR1814. Nature of the data set: Focus-forming reduction assay (FFRA), HCMV VR1814. The following applies: hT-HFF; for EC50 / EC90: Human betaherpesvirus 5, VR1814, FFRA, 96 h p.i.; for SI: VR1814, ratio between CC50 and EC50. It counts as cell-based, Human cytomegalovirus. Here is the method: (§2) The antiviral activity of CCBs was evaluated against VR1814 and TRwt by means of the focus-forming reduction assay (FFRA) procedure. Briefly, hT-HFFs were seeded on 96-well plates (20,000 cells/well) and, after 24 h, treated with different concentrations of compounds (maximum concentration 20 μM, or 100 μM for felodipine) 1 h prior to and during viral infection (50 PFU/well). Control HCMV-infected cells were exposed to vehicle DMSO at 0.04%, or 0.2% for felodipine). After virus adsorption (2 h at 37 °C), virus inoculum was removed and infected cell cultures were incubated in medium containing the corresponding compounds plus 1.2% (w/v) methylcellulose (Merck) and 5% (v/v) FBS. At 96 h post infection (p.i.), cell monolayers were fixed and subjected to indirect immunoperoxidase staining (IPA) with the HCMV IEA mAb (diluted 1:150). Viral foci were microscopically counted, and the mean plaque counts for each drug concentration were expressed as a percentage of the mean plaque counts of control virus (DMSO). GraphPad Prism software was used to determine the concentration of compounds producing 50 and 90% reductions in viral titers (EC50 and EC90).

For data set [4], the system named is HCMV VR1814. Nature of the data set: Focus-forming reduction assay (FFRA), HCMV VR1814. It counts as cell-based, Human cytomegalovirus.
Data set [5] deals with HCMV TRwt. Nature of the data set: Focus-forming reduction assay (FFRA), HCMV TRwt. The settings on record: for EC50 / EC90: Human betaherpesvirus 5, hT-HFF, FFRA, 96 h p.i.; for SI: hT-HFF, ratio between CC50 and EC50. It counts as cell-based, Human cytomegalovirus. As to the method:
as §2

The nature of data set [6]: Cell cytotoxicity assay (MTT), HMVECs. Format: cell-based. The settings on record: human; for CC50 at 5 days: HMVECs, HMVEC, MTT, five days of treatment. Here is the method:
as §1

Setting [7] is: HMVEC, TRwt, ratio between CC50 and EC50.
Setting [8] is: Human betaherpesvirus 5, HMVEC, TRwt, FFRA, 96 h p.i., read-out: EC50.
Where [9] appears, read: Human betaherpesvirus 5, HMVEC, TRwt, FFRA, 96 h p.i., read-out: EC90.
Where [10] appears, read: Human betaherpesvirus 5, hT-HFF, TRUS21stop, FFRA, 96 h p.i., read-out: EC50.
Where [11] appears, read: Human betaherpesvirus 5, hT-HFF, TRUS21stop, FFRA, 96 h p.i., read-out: EC90.
Where [12] appears, read: hT-HFF, TRUS21stop, ratio between CC50 and EC50.
Where [13] appears, read: HMVEC, VR1814, ratio between CC50 and EC50.
[14] abbreviates: Human betaherpesvirus 5, HMVEC, VR1814, FFRA, 96 h p.i., read-out: EC50.
Setting [15] is: Human betaherpesvirus 5, HMVEC, VR1814, FFRA, 96 h p.i., read-out: EC90.
Where [16] appears, read: Human betaherpesvirus 5, HMVEC, 96 h.

T1 sequence (P09723 whole entry): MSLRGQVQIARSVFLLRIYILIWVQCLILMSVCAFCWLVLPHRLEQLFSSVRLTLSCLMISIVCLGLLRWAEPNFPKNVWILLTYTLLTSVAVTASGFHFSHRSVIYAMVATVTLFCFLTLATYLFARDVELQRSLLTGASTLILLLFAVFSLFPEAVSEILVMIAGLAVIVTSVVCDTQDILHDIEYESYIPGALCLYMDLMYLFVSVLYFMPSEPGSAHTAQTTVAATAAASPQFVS

For the molecule `CC1=C(C(=O)OC(C)C)C(c2cccc([N+](=O)[O-])c2)C(C(=O)OC2CN(C(c3ccccc3)c3ccccc3)C2)=C(N)N1` (stereo not shown) [Azelnidipine, azelnidipine], on pUS21, the “Ca2+-conducting activity of pUS21 (Ca2+ release from the ER after IP3mix)” value (shortened to “Ca2+-conducting activity of pUS21”) is reported as “can hamper the Ca^2+-mobilizing activity of pUS21”. Also, the SI worked out at 160.87 with HCMV TRwt [1] (setting [7]); 35.16 with HCMV TRUS21stop (setting [12]); 64.87 in the data set on HCMV VR1814 [3]; 110.37 in the data set on HCMV VR1814 [4] (setting [13]); 125.50 in the data set with HCMV TRwt [5]. Besides, the EC50 in the data set with HCMV TRwt [1] (setting [8]) amounted to 2.12 ± 0.14 µM; in the data set on HCMV TRUS21stop (setting [10]), 5.46 ± 0.17 µM; with HCMV VR1814 [3] it was 2.96 ± 0.53 µM; in the data set on HCMV VR1814 [4] (setting [14]) it was 3.09 ± 0.46 µM; in the data set on HCMV TRwt [5] it was 1.53 ± 0.32 µM. The EC90 is 9.53 ± 0.76 µM in the data set with HCMV TRwt [1] (setting [9]); 19.36 ± 0.06 µM in the data set on HCMV TRUS21stop (setting [11]); 14.7 ± 0.39 µM with HCMV VR1814 [3]; 19 ± 0.27 µM with HCMV VR1814 [4] (setting [15]); 12.1 ± 0.27 µM with HCMV TRwt [5]. The CC50 at 5 days in data set [2] was found to be 192 ± 20.5 µM; in data set [6], 341 ± 20.1 µM.
With `CC1=C(C(=O)OCCN(Cc2ccccc2)c2ccccc2)C(c2cccc([N+](=O)[O-])c2)C(P2(=O)OCC(C)(C)CO2)=C(C)N1` (stereo not shown) [Efonidipine, efonidipine], the “Ca2+-conducting activity of pUS21” value on pUS21 is listed as “can hamper the Ca^2+-mobilizing activity of pUS21”. Further, the SI stood at 83.21 in the data set with HCMV TRwt [1] (setting [7]); 47.77 in the data set with HCMV TRUS21stop (setting [12]); 111.74 in the data set with HCMV VR1814 [3]; 82.28 in the data set on HCMV VR1814 [4] (setting [13]); 106.82 in the data set with HCMV TRwt [5]. Also, the EC50 in the data set with HCMV TRwt [1] (setting [8]) came to 3.55 ± 0.13 µM; in the data set on HCMV TRUS21stop (setting [10]), 7.11 ± 0.05 µM; with HCMV VR1814 [3], 3.04 ± 0.23 µM; with HCMV VR1814 [4] (setting [14]), 3.59 ± 0.67 µM; with HCMV TRwt [5] it was 3.18 ± 0.07 µM. In addition, the EC90 is 6.58 ± 0.91 µM in the data set with HCMV TRwt [1] (setting [9]); above 20 µM with HCMV TRUS21stop (setting [11]); 13.6 ± 2.46 µM in the data set with HCMV VR1814 [3]; 19.5 ± 0.72 µM in the data set with HCMV VR1814 [4] (setting [15]); 14.2 ± 1.67 µM in the data set on HCMV TRwt [5]. Moreover, the results for the CC50 at 5 days in data set [2] and in data set [6] were 340 ± 20.1 µM and 295 ± 11 µM, respectively.
Take `COC(=O)C1=C(C)NC(C)=C(C(=O)OC(C)(C)CN(C)CCC(c2ccccc2)c2ccccc2)C1c1cccc([N+](=O)[O-])c1` (stereo not shown) [Lercanidipine, lercanidipine]: at pUS21, the “Ca2+-conducting activity of pUS21” value is given as “can hamper the Ca^2+-mobilizing activity of pUS21”. Moreover, the SI in the data set with HCMV TRwt [1] (setting [7]) was 86.09; in the data set with HCMV TRUS21stop (setting [12]), 16.65; in the data set on HCMV VR1814 [3] it was 40.55; with HCMV VR1814 [4] (setting [13]), 105.86; with HCMV TRwt [5], 41.08. Further, the EC50 with HCMV TRwt [1] (setting [8]) was determined as 3.32 ± 0.38 µM; with HCMV TRUS21stop (setting [10]) it was 7.6 ± 0.11 µM; in the data set on HCMV VR1814 [3] it was 3.12 ± 0.43 µM; in the data set on HCMV VR1814 [4] (setting [14]), 2.7 ± 0.54 µM; with HCMV TRwt [5] it was 3.08 ± 0.28 µM. In addition, the 90% effect concentration (EC90) in the data set on HCMV TRwt [1] (setting [9]) was 5.9 ± 0.11 µM; in the data set with HCMV TRUS21stop (setting [11]), 19.9 ± 0.5 µM; in the data set with HCMV VR1814 [3], 12.7 ± 1.66 µM; in the data set with HCMV VR1814 [4] (setting [15]) it was 14.5 ± 0.19 µM; with HCMV TRwt [5], 12.7 ± 1.6 µM. Moreover, the CC50 at 5 days in data set [2] is 127 ± 18.8 µM; in data set [6], 286 ± 19.1 µM.
As to `CC(C)Nc1nc2cc(Cl)c(Cl)cc2n1[C@H]1O[C@@H](CO)[C@H](O)[C@@H]1O` [MBV, Maribavir], the concentration giving a half-maximal response (EC50) in the data set on HCMV TRwt [1] (setting [8]) came to 4.74 µM.
`COC(=O)C1=C(C)NC(C)=C(C(=O)OCCCN2CCC(c3ccccc3)(c3ccccc3)CC2)[C@H]1c1cccc([N+](=O)[O-])c1` [Niguldipine, niguldipine]: at pUS21, the “Ca2+-conducting activity of pUS21” value was “can hamper the Ca^2+-mobilizing activity of pUS21”. Further, the SI in the data set with HCMV TRwt [1] is 191.39 and 178.40; in the data set with HCMV TRUS21stop it was 68.70; with HCMV VR1814 [4], 67.93 and 76.31. The EC50 in the data set on HCMV TRwt [1] (Human betaherpesvirus 5, 96 h) is 1.26 ± 0.31 µM; with HCMV TRwt [1] (setting [16]), 1.15 ± 0.29 µM; in the data set with HCMV TRUS21stop (Human betaherpesvirus 5, 96 h) it was 3.51 ± 0.22 µM; in the data set on HCMV VR1814 [4] (Human betaherpesvirus 5, 96 h), 3.16 ± 0.64 µM; with HCMV VR1814 [4] (setting [16]) it was 3.02 ± 0.16 µM. Also, the 90% effect concentration (EC90) with HCMV TRwt [1] (Human betaherpesvirus 5, 96 h) stood at 7.33 ± 2.54 µM; in the data set on HCMV TRwt [1] (setting [16]), 7.24 ± 0.59 µM; in the data set with HCMV TRUS21stop (Human betaherpesvirus 5, 96 h), 13 ± 0.63 µM; in the data set with HCMV VR1814 [4] (Human betaherpesvirus 5, 96 h), 15 ± 0.48 µM; in the data set with HCMV VR1814 [4] (setting [16]) it was 12.7 ± 0.16 µM. Further, the cytotoxic concentration (CC50) came out at 241 ± 23.9 µM in data set [2] and 205 ± 23.3 µM in data set [6].
Regarding `CCOC(=O)C1=C(C)NC(C)=C(C(=O)OC)C1c1cccc(Cl)c1Cl` (stereo not shown) [felodipine], the EC50 with HCMV TRUS21stop (setting [10]) and in the data set on HCMV TRwt [5] was 19.4 µM throughout.

Usually EC50 stands for the concentration giving half of the maximal effect. Broadly, the EC90 is the point of the concentration-response curve where the effect stands at 90%. The term CC50 denotes the concentration at which the toxic effect on the cells reaches its halfway point.
